Source: patent US4792555A, “Phospholipase A2 inhibitors” (American Home Products Corporation, priority 1987, dated 1988)
Where a name gives a salt, the structure may show the parent alone. Read-outs that look alike come from different tables or passages of the source.

Columns and labels:
human platelet PLA2 = biological target: T1, human platelet PLA2 (Homo sapiens, UniProt P14555); test: Inhibition of human platelet PLA2 (hydrolysis of [1-14C]oleic acid labelled E. coli membrane phospholipids) in vitro; assay type: biochemical; conditions: for IC50: standard drugs
T1 sequence (P14555 21-144): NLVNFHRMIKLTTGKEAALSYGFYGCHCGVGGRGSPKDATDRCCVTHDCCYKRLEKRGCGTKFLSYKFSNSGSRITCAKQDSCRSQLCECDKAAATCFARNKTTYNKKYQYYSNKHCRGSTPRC
Protocol: The ability of the compounds to inhibit the activity of PLA2 enzyme is measured in the following in vitro assay.
The assay measures the hydrolysis of E. coli membrane phospholipids and the release of free [1-^14 C] oleic acid from the C-2 position of phospholipids by human platelet PLA2. To ice cold 15×100 mm test tubes, the following additions are made: 2,5×10 E. coli (equivalent to 4 nmol phospholipid), 5 mM Ca^++, 100 mM Tris buffer (pH=7.4), 100 μg platelet extract (or an amount to produce 20-30% hydrolysis), drug or vehicle. The final volume is adjusted to 500 μl with water. Mixtures are vortexed and incubated for 30 minutes in a shaking water bath. It should be noted that preliminary experiments are always performed with each new batch of platelets to establish linear hydrolysis of phospholipids with regard to protein concentration and time. The enzyme reaction is stopped by the addition of 3 volumes of chloroform to each tube which is vortexed and then centrifuged for 5 minutes at 500 g. The lower chloroform/methanol phase is removed and evaporated under N. The dried residue is redissolved in 50 μl CHCl3 :CH3 OH (9:1 v/v), spotted on aluminum-backed chromatographic plates and developed in a solvent system consisting of petroleum ether:diethyl ether:acetic acid (80:20:1). Free fatty acid ([1-^14 C]oleic acid) and [1-^14 C]oleic acid labeled phospholipids are visualized with exposure to iodine vapors. Radioactive areas that cochromatographed with authentic oleic acid and phospholipid standards are cut out and placed in a scintillation vial. One ml CH3 OH and 10 ml Hydrofluor are added to each cut strip and radioactivity is determined by liquid scintillation counting.
The percent hydrolysis is calculated by the following equation: [formula]

[1] = system: 12-O-tetradecanoylphorbol acetate (TPA)-induced murine ear edema; test: TPA-induced murine ear edema test; assay type: in vivo, Swiss Webster female mice; conditions: oral, 30 minutes after TPA; 4 μg TPA/ear; measured 4 hours after TPA; dose in mg/kg not given
Protocol: The ability of the compounds of the invention to inhibit PLA2 is further examined in the in vivo 12-O-tetradecanoylphorbol acetate (TPA)-induced murine ear edema test. According to this test, Swiss Webster female mice (Buckshire), approximately 8 weeks old, are placed into plastic boxes in groups of six. Eight groups of mice receive TPA topically on the right ear. TPA is dissolved in acetone at a concentration of […]. The phlogistics are applied to the right ear by the means of an automatic pipet. Volumes of 10 μl are applied to the inner and outer surfaces of the ear. Each mouse receives 4 μg/ear TPA. The left ear (control) receives acetone delivered in the same manner. […] Measurements are taken with Oditest calipers, 0-10 mm with 0.01 graduations. The right and left ears are measured 4 hours after TPA-induced inflammation. The difference between right and left ear thickness is calculated and the significance is determined by a one way analysis of variance with Dunnett's comparisons to control (P=0.05). Drug effects are expressed as a percent change from control values: [formula]

[2] = system: rat carrageenan paw edema; test: Rat carrageenan paw edema assay; assay type: in vivo, male Sprague-Dawley rats; conditions: for % Inhibition (paw edema): 100 mg/kg peroral, 1 hour prior to carrageenan, paw read at 3 hours
Protocol: The compounds of the invention are further tested in the rat carrageenan paw edema assay to determine their ability to inhibit the acute inflammatory response.
This assay is carried out as follows:
140-180 gm male Sprague-Dawley rats, in groups of 6 animals are injected subcutaneously in the right paw with 0.1 ml of 1% carrageenan at zero time. Mercury plethysmographic readings (ml) of the paw are made at zero time and 3 hours later. Test compounds are suspended or dissolved in 0.5% methylcellulose and given perorally 1 hour prior to carrageenan administration.
The increase in paw volume (edema in ml.) produced by the carrageenan is measured. […] Unpaired Student's t-test used to determine statistical significance.

[3] = system: synthesis of arachidonic acid, PGE2 and LTC4 by murine peritoneal macrophages; test: Inhibition of synthesis of arachidonic acid, PGE2 and LTC4 by murine peritoneal macrophages; assay type: cell-based, CD-1 mice; conditions: Mus musculus, Peritoneal macrophage, 2 hours
Protocol: The ability of the compounds of the invention to inhibit both leukotriene and prostaglandin synthesis is examined in an assay which measures the ability of the compounds of the invention to inhibit the synthesis of arachidonic acid, PGE2 and LTC4 by murine peritoneal macrophages.
The assay is carried out as follows:
Macrophages are removed from the peritoneal cavity of 55-57 day old CD-1 mice (killed by CO2 asphyxiation) by peritoneal lavage and centrifuged at 400×g for ten minutes. The cells are resuspended in Medium 199 and 4×10^6 cells are allowed to adhere on 35×10 mm Petri dishes for 1.5 hours at 37° C. in an atmosphere of 95% air and 5% CO2. The cell monolayers are washed and incubated overnight in Medium 199 supplemented with 10% heat inactivated bovine serum containing 1μCi[^14 C]-arachidonic acid, or in the absence of ^14 C-arachidonic acid when the supernatant is to be assayed by radioimmunoassay (RIA). The labeled cells are then washed and incubated at 37° C. for 2 hours in Medium 199 with the prostaglandin stimuli, zymosan, or 12-o-tetradecanoyl-phorbol-13-acetate (TPA) and in the presence or absence of test compounds. Following incubation, the supernatant is removed and subjected to radioimmunoassay in order to determine the percent inhibition of arachidonic acid, prostaglandin E2 and leukotriene C4 by the test compounds.

[4] = at 100 μM, human platelet PLA2, 30 minutes, pH 7.4, read-out: % Inhibition of PLA2
[5] = human platelet PLA2, 30 minutes, pH 7.4
[6] = pH 7.4, read-out: % Inhibition of PLA2

inhibition at 100 µM (human platelet PLA2; [4]) [%] | Molecule | inhibition at 100 µM (human platelet PLA2; [6]) [%] | also measured
92 | CCCCCCCCCCCCCCCCNC(=O)[C@@H]1CCCN1 [Example 5a, N-(S)-Hexadecyl-2-pyrrolidinecarboxamide] | – | % Change from Control (mouse ear edema) [1]: -53%; % Inhibition (paw edema) [2]: 26%; IC50 ([3]; arachidonic acid, zymosan or TPA stimulus, read-out: IC50 AA): 19.6 µM; IC50 ([3]; leukotriene C4, zymosan or TPA stimulus, read-out: IC50 LTC4): 7.6 µM; IC50 ([3]; prostaglandin E2, zymosan or TPA stimulus, read-out: IC50 PGE2): 13.7 µM
– | Gold Sodium Thiomalate [reference compound] | – | IC50 (human platelet PLA2; [5]): 43 µM
– | CCCCCCCCCCCCCCCCNC(=O)C(N)CCCC.Cl (centres unmarked) [Example 1, 2-Amino-N-hexadecylhexanamide, hydrochloride] | 99 | % Change from Control (mouse ear edema) [1]: -25%
– | O=C(NC1CCCCCCCCCCC1)C1CCCCN1 (centres unmarked) [Example 5d, N-Cyclododecyl-2-piperidinecarboxamide, hydrochloride] | 45 | –
52 | CCCCC(NC(=O)Cc1ccc(-c2ccccc2)cc1)C(=O)N1CC(C)NC(C)C1 (centres unmarked) [Example 4, N-[1-[(3,5-Dimethyl-1-piperazinyl)carbonyl]pentyl][1,1'-biphenyl]-4-acetamide] | – | –
– | COc1ccc2c(c1)c(CC(=O)O)c(C)n2C(=O)c1ccc(Cl)cc1 [Indomethacin, reference compound] | – | IC50 (human platelet PLA2; [5]): 48 µM; ED50 ([2]; Rattus norvegicus, po, 3 h, read-out: Oral ED50 (95% C.L.)): 3.7 mg/kg
98 | CCCCCCCCCCCCCCCCNC(=O)[C@H]1CCCN1 [Example 5b, N-(R)-Hexadecyl-2-pyrrolidinecarboxamide] | – | % Inhibition (paw edema) [2]: 26%
– | CCCCC(N)C(=O)NC1CCCCCCCCCCC1.Cl (centres unmarked) [Example 2a, 2-Amino-N-cyclododecylhexanamide, hydrochloride] | 76 | % Change from Control (mouse ear edema) [1]: -60%; % Inhibition (paw edema) [2]: 22%
– | N[C@@H](Cc1c[nH]c2ccccc12)C(=O)NC1CCCCCCCCCCC1 [Example 6, (S)-α-Amino-N-cyclododecyl-1H-indole-3-propanamide, hydrochloride] | 52 | –
24 | O=C(C1CCCCN1)N1CCC2CCCCC2C1 (centres unmarked) [Example 5f, Decahydro-2-(2-piperidininylcarbonyl)isoquinoline, hydrochloride] | – | –
– | N[C@@H](CC(=O)OCc1ccccc1)C(=O)NC1CCCCCCCCCCC1 [Example 7, (S)-3-Amino-4-(cyclododecylamino)-4-oxobutanoic acid phenylmethyl ester, hydrochloride] | 60 | –
– | O=C(NC1CCCCCCCCCCC1)C1CCCN1 (centres unmarked) [Example 5c, N-Cyclododecyl-2-pyrrolidinecarboxamide, hydrochloride] | 58 | –
24 | CCCC[C@H](N)C(=O)N1CCC2CCCCC2C1 (stereo partly drawn) [Example 2c, 2-[(S)-2-Amino-1-oxohexyl]decahydroisoquinoline, hydrochloride hemihydrate] | – | –
– | CCCC[C@H](N)C(=O)N1CCC(C)CC(C)(C)C1 (stereo partly drawn) [Example 2b, 1-[(S)-2-Amino-1-oxohexyl]hexahydro-3,3,5-trimethyl-1H-azepine, hydrochloride] | 25 | –
64 | CCCC[C@H](NC(=O)CCCCCCc1ccccc1)C(=O)N1CC(C)NC(C)C1 (stereo partly drawn) [Example 3, N-[(S)-1-Butyl-2-(3,5-dimethyl-1-piperazinyl)-2-oxoethyl]benzeneheptanamide] | – | % Change from Control (mouse ear edema) [1]: -39%
